Experimental findings from ChEMBL document CHEMBL1141310, “Screening of Indonesian medicinal plant extracts for antibabesial activity and isolation of new quassinoids from Brucea javanica” (J Nat Prod, 2007) are described below.

The structures appear in SMILES notation. Converted amounts (≈) assume the structure as drawn.

The assay deals with Babesia gibsoni. Nature of the assay: Antibabesial activity against Babesia gibsoni. It is filed as functional, organism-based.
`COC(=O)[C@]12OC[C@]34[C@H]([C@@H](O)[C@@H]1O)[C@@]1(C)CC(=O)C(O)=C(C)[C@@H]1C[C@H]3OC(=O)[C@H](OC(=O)/C=C(\C)C(C)(C)OC(C)=O)[C@@H]24` [BRUCEANTINOL] came in with an IC50 of 0.012 µg/mL (≈ 0.0198 µM).
In turn, `CC1=C(O)C(=O)C[C@]2(C)[C@H]3[C@@H](O)[C@H](O)[C@@]4(C(=O)O)OC[C@@]35[C@@H](C[C@@H]12)OC(=O)[C@H](OC(=O)CC(C)C)[C@@H]45` [BRUCEINE J] showed an IC50 of 0.742 µg/mL (≈ 1.46 µM).
As for `CC1=CC(=O)[C@@H](O)[C@]2(C)[C@H]3[C@@H](O)[C@H](O)[C@]4(C)OC[C@@]35[C@@H](C[C@@H]12)OC(=O)[C@H](O)[C@]54O` [BRUCEINE D], the figure is 0.835 µg/mL (≈ 2.03 µM); as for `COC(=O)[C@@]12OC[C@]34[C@H]([C@@H](O)[C@@H]1O)[C@@]1(C)CC(=O)C(O)=C(C)[C@@H]1C[C@H]3OC(=O)[C@H](OC(C)=O)[C@@H]24` [BRUCEINE B], 0.893 µg/mL (≈ 1.86 µM).
With `CC1=CC(=O)[C@@H](O)[C@]2(C)[C@H]3[C@@H](O)[C@H](O)[C@]4(CO)OC[C@@]35[C@@H](C[C@@H]12)OC(=O)[C@H](O)[C@]54O` [YADANZIOLIDE A] the figure was 0.216 µg/mL (≈ 0.507 µM); with `COC(=O)[C@@]12OC[C@]34[C@H]([C@@H](O)[C@@H]1O)[C@@]1(C)CC(=O)C(O)=C(C)[C@@H]1C[C@H]3OC(=O)[C@H](OC(=O)CC(C)C)[C@@H]24` [BRUCEINE A], 0.004 µg/mL (≈ 0.00765 µM); with `CC(=O)OC(C)(C)/C(C)=C/C(=O)O[C@H]1C(=O)O[C@@H]2C[C@H]3C(C)=C(O)C(=O)C[C@]3(C)[C@H]3[C@@H](O)[C@H](O)[C@@]4(C(=O)O)OC[C@]32[C@@H]14` [BRUCEANTINOL B], 0.978 µg/mL (≈ 1.65 µM).
As for `COC(=O)[C@]12OC[C@]34[C@H]([C@@H](O)[C@@H]1O)[C@@]1(C)CC(=O)C(O)=C(C)[C@@H]1C[C@H]3OC(=O)[C@H](OC(=O)/C=C(\C)C(C)(C)O)[C@@H]24` [BRUCEINE C], the figure is 0.107 µg/mL (≈ 0.19 µM).
The compound `CC(=O)NCC(=O)O.N=C(N)c1ccc(/N=N/Nc2ccc(C(=N)N)cc2)cc1` [DIMINAZEN ACETURATE] came in with an IC50 of 0.103 µg/mL.
